Where two headings read alike, the source gives them in different places.
Experiments:
[1] = test system: MES SA; assay: Cytotoxicity assay (CellTiter-Glo), MES SA; assay type: cell-based, human; conditions: MES-SA, read-out: Cancer cell lines IC50, MES SA
[2] = test system: MES SA DX; assay: Cytotoxicity assay (CellTiter-Glo), MES SA DX; assay type: cell-based, human; conditions: Homo sapiens, MES-SA, 72 h, read-out: Cancer cell lines IC50, MES SA DX
[3] = test system: NCI/ADR-RES; assay: Cytotoxicity (GI50) assay, NCI/ADR-RES; assay type: cell-based, human; conditions: Homo sapiens, NCI/ADR-RES, read-out: Cancer cell lines GI50, NCI/ADR-RES
[4] = test system: Tubulin; assay: Tubulin assembly induction; assay type: biochemical
[5] = test system: HEK 293T; assay: Cytotoxicity assay (CellTiter-Glo), HEK 293T; assay type: cell-based; conditions: Homo sapiens, 72 h, read-out: Cancer cell lines IC50, HEK 293T
[6] = test system: MDA-MB-435; assay: Cytotoxicity (GI50) assay, MDA-MB-435; assay type: cell-based, human
[7] = test system: SNB-75; assay: Cytotoxicity (GI50) assay, SNB-75; assay type: cell-based, human
[8] = test system: OVCAR-8; assay: Cytotoxicity (GI50) assay, OVCAR-8; assay type: cell-based, human
[9] = test system: MCF-7; assay: Cytotoxicity (GI50) assay, MCF-7; assay type: cell-based, human
[10] = Homo sapiens, MDA-MB-435, read-out: Cancer cell lines GI50, MDA-MB-435
[11] = Homo sapiens, SNB-75, read-out: Cancer cell lines GI50, SNB-75
[12] = Homo sapiens, OVCAR-8, read-out: Cancer cell lines GI50, OVCAR-8
[13] = Homo sapiens, MCF7, read-out: Cancer cell lines GI50, MCF-7

Compound	IC50 ([1]; Homo sapiens, 72 h) [nM]	IC50 [2] [nM]	GI50 [3] [nM]	EC50 ([4]; […]) [nM]	IC50 [5] [nM]	GI50 [6, 10] [nM]	GI50 [7, 11] [nM]	GI50 [8, 12] [nM]	GI50 [9, 13] [nM]	EC50 [4] [nM]	IC50 ([1]; human uterine sarcoma cell line, 72 hours, CellTiter-Glo) [nM]	GI50 ([6]; MDA-MB-435, human melanoma cell line, read-out: Cancer cell lines GI50, MDA-MB-435) [nM]	GI50 ([7]; SNB-75, human glioblastoma cell line, read-out: Cancer cell lines GI50, SNB-75) [nM]	GI50 ([8]; OVCAR-8, human ovarian cancer cell line, read-out: Cancer cell lines GI50, OVCAR-8) [nM]	GI50 ([9]; MCF7, human breast cancer cell line, concentration required to decrease cell growth by 50%, read-out: Cancer cell lines GI50, MCF-7) [nM]
CSc1nc(/C=C(\C)[C@@H]2C[C@@H]3N(CCOC(C)=O)[C@]3(C)CCC[C@H](C)[C@H](OC(C)=O)[C@@H](C)C(=O)C(C)(C)[C@@H](OC(C)=O)CC(=O)O2)co1 (stereo partly drawn) [compound 18, (1S,3S,7S,10R,11S,12S,16R)-17-(2-Acetoxyethyl)-8,8,10,12,16-pentamethyl-3-{(1E)-1-[2-(methylsulfanyl)-1,3-oxazol-4-yl]prop-1-en-2-yl}-5,9-dioxo-4-oxa-17-azabicyclo[14.1.0]-heptadecane-7,11-diyl diacetate]	116	373	2300	> 60000	17.9	120	290	290	1100	–	–	–	–	–	–
CSc1nc(/C=C(\C)[C@@H]2C[C@@H]3N(CCOC(C)=O)[C@]3(C)CCC[C@H](C)[C@H](O)[C@@H](C)C(=O)C(C)(C)[C@@H](O)CC(=O)O2)cs1 (stereo partly drawn) [compound 36, 2-[(1S,3S,7S,10R,11S,12S,16R)-7,11-Dihydroxy-8,8,10,12,16-pentamethyl-3-{(1E)-1-[2-(methylsulfanyl)-1,3-thiazol-4-yl]prop-1-en-2-yl}-5,9-dioxo-4-oxa-17-azabicyclo[14.1.0]-heptadec-17-yl]ethyl acetate]	0.29	0.86	–	4000	0.07	3.5	23	18	5.5	–	–	–	–	–	–
C/C(=C\c1csc(-c2nc(C)cs2)n1)[C@@H]1C[C@@H]2N(CCO)[C@]2(C)CCC[C@H](C)[C@H](O)[C@@H](C)C(=O)C(C)(C)[C@@H](O)CC(=O)O1 (stereo partly drawn) [compound 22, (1S,3S,7S,10R,11S,12S,16R)-7,11-Dihydroxy-17-(2-hydroxyethyl)-8,8,10,12,16-pentamethyl-3-[(1E)-1-(4′-methyl-2,2′-bi-1,3-thiazol-4-yl)prop-1-en-2-yl]-4-oxa-17-azabicyclo[14.1.0]-heptadecane-5,9-dione]	1.86	392	240	17000	1.55	4	18	18	7.5	–	–	–	–	–	–
CC(=O)[C@@H]1C[C@@H]2N[C@]2(C)CCC[C@H](C)[C@H](O)[C@@H](C)C(=O)C(C)(C)[C@@H](O)CC(=O)O1 [compound 79, (1S,3S,7S,10R,11S,12S,16R)-3-Acetyl-7,11-dihydroxy-8,8,10,12,16-pentamethyl-4-oxa-17-azabicyclo[14.1.0]heptadecane-5,9-dione]	> 2500	> 2500	> 5000	> 60000	> 2500	> 5000	> 5000	> 5000	> 5000	–	–	–	–	–	–
C/C(=C\c1csc(C)n1)[C@@H]1C[C@@H]2N[C@@H]2CCC[C@H](C)[C@H](O)[C@@H](C)C(=O)C(C)(C)[C@@H](O)CC(=O)O1 [compound 8, 12,13-aziridinyl epothilone A, reference compound]	1.14	16.9	38	> 40000	0.95	–	–	5.5	2.5	–	–	–	–	–	–
C/C(=C\c1cnon1)[C@@H]1C[C@@H]2N(CCO)[C@]2(C)CCC[C@H](C)[C@H](O)[C@@H](C)C(=O)C(C)(C)[C@@H](O)CC(=O)O1 (stereo partly drawn) [compound 27, (1S,3S,7S,10R,11S,12S,16R)-7,11-Dihydroxy-17-(2-hydroxyethyl)-8,8,10,12,16-pentamethyl-3-[(1E)-1-(1,2,5-oxadiazol-3-yl)prop-1-en-2-yl]-4-oxa-17-azabicyclo[14.1.0]heptadecane-5,9-dione]	38.9	≥ 2500	> 5000	> 60000	11.7	120	450	580	140	–	–	–	–	–	–
C/C(=C\c1csc(-c2nc(C)cs2)n1)[C@@H]1C[C@@H]2N[C@]2(C)CCC[C@H](C)[C@H](O)[C@@H](C)C(=O)C(C)(C)[C@@H](O)CC(=O)O1 [compound 32, (1S,3S,7S,10R,11S,12S,16R)-7,11-Dihydroxy-8,8,10,12,16-pentamethyl-3-[(1E)-1-(4′-methyl-2,2′-bi-1,3-thiazol-4-yl)prop-1-en-2-yl]-4-oxa-17-azabicyclo[14.1.0]heptadecane-5,9-dione]	25.8	> 400	170	43000	63.2	11	68	58	25	–	–	–	–	–	–
C/C(=C\c1csc(C)n1)[C@@H]1C[C@@H]2O[C@]2(C)CCC[C@H](C)[C@H](O)[C@@H](C)C(=O)C(C)(C)[C@@H](O)CC(=O)O1 [compound 2, epothilone B, reference compound]	0.28	1.16	19	[…]	0.26	7	8	15	9.2	–	–	–	–	–	–
C#CCCN1[C@H]2C[C@@H](/C(C)=C/c3csc(SC)n3)OC(=O)C[C@H](O)C(C)(C)C(=O)[C@H](C)[C@@H](O)[C@@H](C)CCC[C@]21C (stereo partly drawn) [compound 39, (1S,3S,7S,10R,11S,12S,16R)-17-(But-3-yn-1-yl)-7,11-dihydroxy-8,8,10,12,16-pentamethyl-3-{(1E)-1-[2-(methylsulfanyl)-1,3-thiazol-4-yl]prop-1-en-2-yl}-4-oxa-17-azabicyclo[14.1.0]heptadecane-5,9-dione]	0.23	0.45	–	3500	0.09	3.5	31	18	30	–	–	–	–	–	–
C/C(=C\c1snnc1C)[C@@H]1C[C@@H]2N(CCO)[C@]2(C)CCC[C@H](C)[C@H](O)[C@@H](C)C(=O)C(C)(C)[C@@H](O)CC(=O)O1 (stereo partly drawn) [compound 30, (1S,3S,7S,10R,11S,12S,16R)-7,11-Dihydroxy-17-(2-hydroxyethyl)-8,8,10,12,16-pentamethyl-3-[(1E)-1-(4-methyl-1,2,3-thiadiazol-5-yl)prop-1-en-2-yl]-4-oxa-17-azabicyclo[14.1.0]heptadecane-5,9-dione]	37.8	> 2500	2800	> 60000	64	48	100	210	58	–	–	–	–	–	–
CC1=CCC(C(C)=Cc2csc(C)n2)OC(=O)CC(O)C(C)(C)C(=O)C(C)C(O)C(C)CCC1 (stereo not shown) [compound 4, epothilone D, reference compound]	6.84	9.7	17	–	3.55	–	–	13	14	18000	–	–	–	–	–
CSc1nc(/C=C(\C)[C@@H]2C[C@@H]3N(CCO)[C@]3(C)CCC[C@H](C)[C@H](O)[C@@H](C)C(=O)C(C)(C)[C@@H](O)CC(=O)O2)co1 (stereo partly drawn) [compound 17, (1S,3S,7S,10R,11S,12S,16R)-7,11-Dihydroxy-17-(2-hydroxyethyl)-8,8,10,12,16-pentamethyl-3-{(1E)-1-[2-(methylsulfanyl)-1,3-oxazol-4-yl]prop-1-en-2-yl}-4-oxa-17-azabicyclo[14.1.0]-heptadecane-5,9-dione]	0.02	1.11	–	4000 ± 1000	0.05	3.5	13	25	7.5	–	–	–	–	–	–
CC(=Cc1csc(C)n1)C1CC2OC2CCCC(C)C(O)C(C)C(=O)C(C)(C)C(O)CC(=O)O1 (stereo not shown) [compound 1, epothilone A]	–	5.12	78	–	–	–	–	–	–	22000	1.46	16	26	20	17
C/C(=C\c1csc(C)n1)[C@@H]1C[C@H]2[C@@H](CCC[C@H](C)[C@H](O)[C@@H](C)C(=O)C(C)(C)[C@@H](O)CC(=O)O1)N2CCO (stereo partly drawn) [compound 9, (1S,3S,7S,10R,11S,12S,16R)-7,11-Dihydroxy-17-(2-hydroxyethyl)-8,8,10,12-tetramethyl-3-[(1E)-1-(2-methyl-1,3-thiazol-4-yl)prop-1-en-2-yl]-4-oxa-17-azabicyclo[14.1.0]heptadecane-5,9-dione, reference compound]	8.01	15.7	–	1900	0.67	–	–	3	2	–	–	–	–	–	–

Source: patent publication US20210238187A1, “AZIRIDINE CONTAINING EPOTHILONE ANALOGS, METHODS OF SYNTHESIS, METHODS OF TREATMENT, AND DRUG CONJUGATES” (WILLIAM MARSH RICE UNIVERSITY, priority 2017, published 2021)
